From ChEMBL document CHEMBL5034004, “Discovery of M3 Antagonist-PDE4 Inhibitor Dual Pharmacology Molecules for the Treatment of Chronic Obstructive Pulmonary Disease” (J Med Chem, 2021)

Assays:
[1] = Antiinflammatory activity in human PBMCs assessed as inhibition of LPS-induced TNF-alpha release measured after 18 hrs by ELISA; format: functional, tissue-based, PBMC; conditions: for pIC50: pbmc; for IC50: Homo sapiens, PBMC, 18 h
[2] = target: Muscarinic acetylcholine receptor M3 (Rattus norvegicus, UniProt P08483); assay: Antagonist activity at muscarinic M3 receptor in rat trachea assessed as inhibition of carbachol-induced contraction; format: functional, tissue-based
Chain of Muscarinic acetylcholine receptor M3 (Rattus norvegicus, UniProt P08483) (P08483 whole entry): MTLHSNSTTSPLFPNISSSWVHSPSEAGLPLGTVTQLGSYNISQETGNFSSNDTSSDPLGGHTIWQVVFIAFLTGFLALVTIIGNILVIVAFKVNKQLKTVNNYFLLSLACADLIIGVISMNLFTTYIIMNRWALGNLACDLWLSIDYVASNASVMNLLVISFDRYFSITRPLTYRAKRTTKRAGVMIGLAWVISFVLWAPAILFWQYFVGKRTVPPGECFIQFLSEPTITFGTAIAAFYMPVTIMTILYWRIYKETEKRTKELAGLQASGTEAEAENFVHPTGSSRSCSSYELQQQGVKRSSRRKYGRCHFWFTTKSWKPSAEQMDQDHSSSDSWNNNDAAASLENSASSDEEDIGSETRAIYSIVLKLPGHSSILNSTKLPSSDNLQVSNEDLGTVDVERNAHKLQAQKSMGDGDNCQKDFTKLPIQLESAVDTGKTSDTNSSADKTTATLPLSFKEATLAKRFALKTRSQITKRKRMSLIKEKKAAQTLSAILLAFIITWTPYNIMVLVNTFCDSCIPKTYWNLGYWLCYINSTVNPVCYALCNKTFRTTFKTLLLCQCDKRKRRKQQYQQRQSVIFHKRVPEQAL

[3] = target: 3',5'-cyclic-AMP phosphodiesterase 4B (Homo sapiens, UniProt Q07343); assay: Inhibition of human recombinant PDE4B2 assessed as […] in cAMP level incubated for 2 hrs by LANCE Ultra cAMP TR-FRET assay
Chain of 3',5'-cyclic-AMP phosphodiesterase 4B (Q07343 whole entry): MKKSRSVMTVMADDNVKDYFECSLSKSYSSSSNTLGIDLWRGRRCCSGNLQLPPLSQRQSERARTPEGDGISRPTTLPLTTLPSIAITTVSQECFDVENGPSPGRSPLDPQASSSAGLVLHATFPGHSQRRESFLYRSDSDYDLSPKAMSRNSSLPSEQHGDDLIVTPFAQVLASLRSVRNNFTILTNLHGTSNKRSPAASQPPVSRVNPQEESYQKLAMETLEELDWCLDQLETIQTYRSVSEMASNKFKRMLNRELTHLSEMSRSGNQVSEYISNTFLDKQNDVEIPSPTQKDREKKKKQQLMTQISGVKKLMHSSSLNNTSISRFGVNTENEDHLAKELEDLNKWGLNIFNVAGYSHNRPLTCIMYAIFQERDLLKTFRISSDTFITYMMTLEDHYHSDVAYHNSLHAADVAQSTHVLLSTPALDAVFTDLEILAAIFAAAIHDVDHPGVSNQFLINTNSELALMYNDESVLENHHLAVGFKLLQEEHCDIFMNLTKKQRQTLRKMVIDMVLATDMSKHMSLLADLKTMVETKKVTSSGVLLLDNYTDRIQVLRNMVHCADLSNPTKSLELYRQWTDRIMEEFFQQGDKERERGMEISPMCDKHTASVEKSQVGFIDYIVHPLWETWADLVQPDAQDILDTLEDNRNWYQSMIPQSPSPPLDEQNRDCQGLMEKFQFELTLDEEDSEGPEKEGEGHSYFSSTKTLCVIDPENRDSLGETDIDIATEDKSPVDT

[4] = Antagonist activity at muscarinic M3 receptor in guinea pig trachea assessed as inhibition of carbachol-induced contraction; format: tissue-based, Cavia porcellus
[5] = target: Muscarinic acetylcholine receptor M3 (Homo sapiens, UniProt P20309); assay: Displacement of [3H]-N-methyl Scopolamine Chloride from human M3 receptor membranes incubated for 2 hrs by scintillation counting analysis; format: cell membranes, Cell membrane
Chain of Muscarinic acetylcholine receptor M3 (Homo sapiens, UniProt P20309) (P20309 whole entry): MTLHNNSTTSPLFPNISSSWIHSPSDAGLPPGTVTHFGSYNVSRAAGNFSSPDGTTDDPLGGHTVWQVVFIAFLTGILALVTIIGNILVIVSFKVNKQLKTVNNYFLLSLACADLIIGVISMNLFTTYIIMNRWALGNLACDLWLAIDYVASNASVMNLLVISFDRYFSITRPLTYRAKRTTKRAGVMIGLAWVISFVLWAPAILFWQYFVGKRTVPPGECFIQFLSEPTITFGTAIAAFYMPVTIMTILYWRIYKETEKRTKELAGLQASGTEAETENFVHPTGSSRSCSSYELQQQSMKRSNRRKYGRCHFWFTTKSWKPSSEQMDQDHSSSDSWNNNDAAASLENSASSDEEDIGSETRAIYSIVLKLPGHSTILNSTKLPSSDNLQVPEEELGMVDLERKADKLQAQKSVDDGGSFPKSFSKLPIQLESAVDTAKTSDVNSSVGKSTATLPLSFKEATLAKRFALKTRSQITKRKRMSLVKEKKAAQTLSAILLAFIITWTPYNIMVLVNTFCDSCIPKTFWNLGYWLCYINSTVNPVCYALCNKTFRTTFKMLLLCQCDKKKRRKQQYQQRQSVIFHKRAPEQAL

[6] = target: 3',5'-cyclic phosphodiesterase; assay: Inhibition of PDE4 in human U-937 cells assessed as […] in cAMP level by LANCE cAMP Assay; format: cell-based

Row | SMILES | IC50 [2] | IC50 [3] | IC50 [1] | pIC50 [4] | Ki [5] | further results
1 | COc1ccc([C@H](Cc2c(Cl)c[n+]([O-])cc2Cl)OC(=O)c2ccc(CNC(C(=O)OC[C@H]3CCN3C)c3ccccc3)s2)cc1OC (stereo in doubt; 91i) | 20 nM | – | – | – | – | pIC50 [1]: 8.1
2 | COc1ccc([C@H](Cc2c(Cl)c[n+]([O-])cc2Cl)OC(=O)c2ccc(CN(C(=O)O[C@H]3CN4CCC3CC4)c3nccs3)s2)cc1OC | – | 0.631 nM | 0.501 nM | 8.4 | 0.794 nM | –
3 | COc1ccc([C@H](Cc2c(Cl)c[n+]([O-])cc2Cl)OC(=O)c2ccc(CNC(C(=O)OCCN(C)C)c3ccccc3)s2)cc1OC (stereo in doubt; 91j) | 79.4 nM | 1 nM | 3.16 nM | – | 12.6 nM | –
4 | COc1ccc([C@H](Cc2c(Cl)c[n+]([O-])cc2Cl)OC(=O)c2ccc(CN(C(=O)O[C@H]3CN4CCC3CC4)c3cccc(C(F)F)c3)s2)cc1OC | – | 0.316 nM | 0.2 nM | 8.8 | 3.16 nM | –
5 | COc1ccc([C@H](Cc2c(Cl)c[n+]([O-])cc2Cl)OC(=O)c2ccc(F)c(CN(C(=O)O[C@H]3CN4CCC3CC4)c3ccccc3)c2)cc1OC | – | 7.94 nM | 2 nM | 9 | 0.2 nM | –
6 | COc1ccc([C@H](Cc2c(Cl)c[n+]([O-])cc2Cl)OC(=O)c2ccc(CNC(C(=O)O[C@@H]3CCN(C)C3)c3ccccc3)s2)cc1OC (stereo in doubt; 91f) | 1 nM | 3.16 nM | 3.98 nM | – | 7.94 nM | –
7 | COc1ccc([C@H](Cc2c(Cl)c[n+]([O-])cc2Cl)OC(=O)c2ccc(CNC(C(=O)OC3C[C@H]4CC[C@H](C3)N4C)c3ccccc3)s2)cc1OC (stereo in doubt; 92d) | – | – | – | – | 10 nM | pIC50 [3]: 9
8 | COc1ccc([C@H](Cc2c(Cl)c[n+]([O-])cc2Cl)OC(=O)c2ccc(CN(C)C(C(=O)O[C@H]3CN4CCC3CC4)c3ccccc3)s2)cc1OC (stereo in doubt; 92c) | – | 3.16 nM | – | – | – | pIC50 [1]: 8.7; pKi [5]: 9.2
9 | O=C(O[C@@H](Cc1c(Cl)c[n+]([O-])cc1Cl)c1ccc(OC(F)F)c(OCC2CC2)c1)c1cccc(CN(C(=O)O[C@H]2CN3CCC2CC3)c2ccccc2)c1 | – | – | – | 6.5 | 1.26 nM | pIC50 [6]: 9.9
10 | O=C(O[C@@H](Cc1c(Cl)c[n+]([O-])cc1Cl)c1ccc(OC(F)F)c(OCC2CC2)c1)c1cccc(CNC(C(=O)O[C@H]2CN3CCC2CC3)c2ccccc2)c1 (stereo partly drawn) | – | – | – | 7.6 | 0.631 nM | pIC50 [6]: 9.5
11 | COc1ccc([C@H](Cc2c(Cl)c[n+]([O-])cc2Cl)OC(=O)c2ccc(CNC(C(=O)O[C@H]3CN4CCC3CC4)c3ccccc3F)s2)cc1OC (stereo in doubt; 92b) | – | – | – | 8.5 | 0.158 nM | pIC50 [3]: 9.2; pIC50 [1]: 8.9
12 | COc1ccc([C@H](Cc2c(Cl)c[n+]([O-])cc2Cl)OC(=O)c2cccc(S(=O)(=O)NC(C(=O)O[C@H]3CN4CCC3CC4)c3ccccc3)c2)cc1OC (stereo partly drawn) | – | – | – | 8.2 | 0.631 nM | pIC50 [6]: 9.6
13 | COc1ccc([C@H](Cc2c(Cl)c[n+]([O-])cc2Cl)OC(=O)c2ccc(CN(C)C(C(=O)O[C@H]3CN4CCC3CC4)c3ccccc3)s2)cc1OC (stereo in doubt; 91c) | – | 2 nM | 3.16 nM | – | 0.631 nM | –
14 | COc1ccc([C@H](Cc2c(Cl)c[n+]([O-])cc2Cl)OC(=O)c2ccc(CN(C(=O)O[C@H]3CN4CCC3CC4)c3ccccc3)cc2F)cc1OC | – | 2.51 nM | 0.126 nM | 8.6 | 0.158 nM | –
15 | COc1ccc([C@H](Cc2c(Cl)c[n+]([O-])cc2Cl)OC(=O)c2ccc(CNC(C(=O)OC3CCN(C)CC3)c3ccccc3)s2)cc1OC (stereo in doubt; 91e) | 20 nM | 1 nM | 1.58 nM | – | 10 nM | –
16 | COc1ccc([C@H](Cc2c(Cl)c[n+]([O-])cc2Cl)OC(=O)c2ccc(CNC(C(=O)OC3C[C@H]4CC[C@H](C3)N4C)c3ccccc3)s2)cc1OC (stereo in doubt; 91d) | 10 nM | 1 nM | 2.51 nM | – | 0.501 nM | –
17 | COc1ccc([C@H](Cc2c(Cl)c[n+]([O-])cc2Cl)OC(=O)c2cccc(CNC(C(=O)O[C@H]3CN4CCC3CC4)c3ccccc3)c2)cc1OC (stereo in doubt; 90) | – | 7.94 nM | – | 9.1 | 0.2 nM | pIC50 [1]: 8.6
18 | COc1ccc([C@H](Cc2c(Cl)c[n+]([O-])cc2Cl)OC(=O)c2ccc(CNC(C(=O)OCC3CCN(C)CC3)c3ccccc3)s2)cc1OC (stereo in doubt; 92h) | 5.01 nM | – | – | – | – | pIC50 [1]: 8.8
19 | COc1ccc([C@H](Cc2c(Cl)c[n+]([O-])cc2Cl)OC(=O)Cc2ccc(CN(C(=O)O[C@H]3CN4CCC3CC4)c3ccccc3)cc2)cc1OC | – | 10 nM | – | – | 0.316 nM | –
20 | COc1ccc([C@H](Cc2c(Cl)c[n+]([O-])cc2Cl)OC(=O)c2ccc(CN(C(=O)O[C@H]3CN4CCC3CC4)c3cccc(F)c3)s2)cc1OC | – | 1 nM | 0.631 nM | 8.1 | 0.2 nM | –
21 | COc1ccc([C@H](Cc2c(Cl)c[n+]([O-])cc2Cl)OC(=O)c2ccc(CNC(C(=O)OCC3CCN(C)CC3)c3ccccc3)s2)cc1OC (stereo in doubt; 91h) | – | – | – | – | – | pIC50 [1]: 8.4
22 | COc1ccc([C@H](Cc2c(Cl)c[n+]([O-])cc2Cl)OC(=O)c2ccc(CNC(C(=O)O[C@H]3CN4CCC3CC4)c3ccccc3F)s2)cc1OC (stereo in doubt; 91b) | – | 0.631 nM | 1 nM | 8.6 | 0.1 nM | –
23 | COc1ccc([C@H](Cc2c(Cl)c[n+]([O-])cc2Cl)OC(=O)c2ccc(CN(C(=O)O[C@H]3CN4CCC3CC4)c3ccccc3)cc2)cc1OC | – | 2 nM | 2.51 nM | 8.7 | 0.158 nM | –
24 | COc1ccc([C@H](Cc2c(Cl)c[n+]([O-])cc2Cl)OC(=O)c2ccc(CN(C(=O)O[C@H]3CN4CCC3CC4)c3cccnc3)s2)cc1OC | – | – | – | – | 7.94 nM | –
25 | COc1ccc([C@H](Cc2c(Cl)c[n+]([O-])cc2Cl)OC(=O)c2ccc(CNC(C(=O)OC[C@H]3CN4CCC3CC4)c3ccccc3)s2)cc1OC (stereo in doubt; 92g) | 3.16 nM | – | – | – | – | pIC50 [1]: 8.4
26 | COc1ccc([C@H](Cc2c(Cl)c[n+]([O-])cc2Cl)OC(=O)c2ccc(CNC(C(=O)OCCN(C)C)c3ccccc3)s2)cc1OC (stereo in doubt; 92j) | 12.6 nM | 0.631 nM | – | – | 0.398 nM | –
27 | COc1ccc([C@H](Cc2c(Cl)c[n+]([O-])cc2Cl)OC(=O)c2ccc(CN(C(=O)O[C@H]3CN4CCC3CC4)c3cccc(O)c3)s2)cc1OC | – | 0.794 nM | 0.398 nM | 9 | 0.316 nM | –
28 | COc1ccc([C@H](Cc2c(Cl)c[n+]([O-])cc2Cl)OC(=O)c2ccc(CNC(C(=O)OC[C@H]3CN4CCC3CC4)c3ccccc3)s2)cc1OC (stereo in doubt; 91g) | 20 nM | – | 3.16 nM | – | – | –
29 | COc1ccc([C@H](Cc2c(Cl)c[n+]([O-])cc2Cl)OC(=O)c2ccc(CNC(C(=O)OC[C@H]3CCN3C)c3ccccc3)s2)cc1OC (stereo in doubt; 92i) | 5.01 nM | – | – | – | – | –
30 | COc1ccc([C@H](Cc2c(Cl)c[n+]([O-])cc2Cl)OC(=O)c2cccc(CNC(C(=O)O[C@H]3CN4CCC3CC4)c3ccccc3)c2)cc1OC (stereo in doubt; 89) | – | 3.98 nM | 1.26 nM | 9 | 0.158 nM | –
